ChEMBL document CHEMBL6092168, “Identification of novel indolinone derivatives as CTSC inhibitors to treat inflammatory bowel disease by modulating inflammatory factors” (Eur J Med Chem, 2024)

Columns and labels:
[1] = molecular target: T1, Neutrophil elastase (Mus musculus) (UniProt Q3UP87); assay: In vivo inhibition of neutrophil elastase in C57BL/6 mouse assessed as reduction in neutrophil elastase activity in blood administered orally once daily for 6 days by fluorescence based microplate reader; format: functional, organism-based; settings: dose 5-30 mg/kg, route po, time 6.0 day
T1 sequence (whole entry): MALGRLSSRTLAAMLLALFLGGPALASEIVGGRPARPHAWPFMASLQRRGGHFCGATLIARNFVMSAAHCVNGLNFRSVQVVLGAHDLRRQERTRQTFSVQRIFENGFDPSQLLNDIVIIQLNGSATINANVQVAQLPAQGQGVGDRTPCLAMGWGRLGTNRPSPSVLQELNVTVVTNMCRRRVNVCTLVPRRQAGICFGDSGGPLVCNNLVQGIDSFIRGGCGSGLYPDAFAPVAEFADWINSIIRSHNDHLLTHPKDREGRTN

[2] = molecular target: T1, Neutrophil elastase (Mus musculus); assay: In vivo inhibition of neutrophil elastase in C57BL/6 mouse assessed as reduction in neutrophil elastase activity in bone marrow administered orally once daily for 6 days by fluorescence based microplate reader; format: functional, organism-based; settings: dose 5-30 mg/kg, route po, time 6.0 day
[3] = molecular target: T2, Myeloblastin (Mus musculus) (UniProt Q61096); assay: Induction of proteinase 3 degradation in C57BL/6 mouse bone marrow cells assessed as residual activity at 10 uM incubated for 48 hrs by Western blot analysis relative to control; format: cell-based; settings: Bone marrow cell
T2 sequence (whole entry): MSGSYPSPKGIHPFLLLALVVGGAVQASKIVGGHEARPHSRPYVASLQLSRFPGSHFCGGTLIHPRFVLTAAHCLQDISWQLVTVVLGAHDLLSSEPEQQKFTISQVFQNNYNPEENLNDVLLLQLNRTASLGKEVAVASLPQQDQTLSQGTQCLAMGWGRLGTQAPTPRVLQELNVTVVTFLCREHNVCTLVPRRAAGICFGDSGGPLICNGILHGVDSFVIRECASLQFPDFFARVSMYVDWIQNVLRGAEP

[4] = Acute toxicity in ICR mouse assessed as kidney pathological change at 1500 mg/kg, po administered daily for 7 days by H and E staining based analysis; format: organism-based; settings: in vivo, 168 h, time 7 day
[5] = Acute toxicity in ICR mouse assessed as body weight loss at 1500 mg/kg, po administered daily for 7 days; format: organism-based; settings: in vivo, 168 h, time 7 day
[6] = molecular target: T1, Neutrophil elastase (Mus musculus); assay: Induction of neutrophil elastase degradation in C57BL/6 mouse bone marrow cells assessed as remaining activity at 10 uM incubated for 12 hrs by Western blot analysis relative to control; format: cell-based; settings: Bone marrow cell
[7] = AUC (0 to infinity) in male Sprague-Dawley rat at 2 mg/kg, iv measured at 5 to 1440 mins by LC-MS/MS analysis; format: ADME, organism-based; settings: in vivo, time 5-1440 min
[8] = molecular target: T3, Dipeptidyl peptidase 1 (Mus musculus) (UniProt P97821); assay: In vivo inhibition of Cathepsin C in C57BL/6 mouse assessed as reduction in cathepsin C activity in bone marrow administered orally once daily for 6 days by fluorescence based microplate reader; format: functional, organism-based; settings: dose 5-30 mg/kg, route po, time 6.0 day
T3 sequence (whole entry): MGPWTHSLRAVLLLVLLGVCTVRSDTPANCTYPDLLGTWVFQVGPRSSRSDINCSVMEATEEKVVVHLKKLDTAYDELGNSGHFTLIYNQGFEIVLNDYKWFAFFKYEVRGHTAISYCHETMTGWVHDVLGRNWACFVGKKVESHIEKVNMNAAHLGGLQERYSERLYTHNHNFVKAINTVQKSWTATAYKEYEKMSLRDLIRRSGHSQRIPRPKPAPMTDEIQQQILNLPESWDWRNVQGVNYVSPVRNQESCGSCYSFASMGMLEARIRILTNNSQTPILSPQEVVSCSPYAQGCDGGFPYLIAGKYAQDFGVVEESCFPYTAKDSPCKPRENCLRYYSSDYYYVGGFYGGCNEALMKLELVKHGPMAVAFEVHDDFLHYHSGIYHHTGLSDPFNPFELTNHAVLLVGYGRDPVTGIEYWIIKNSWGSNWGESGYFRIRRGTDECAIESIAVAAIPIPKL

[9] = Apparent permeability in human Caco-2 cells incubated for 90 min by LC-MS/MS analysis; format: ADME, cell-based
[10] = molecular target: T2, Myeloblastin (Mus musculus); assay: In vivo inhibition of proteinase 3 in C57BL/6 mouse assessed as reduction in proteinase 3 activity in bone marrow administered orally once daily for 6 days by fluorescence based microplate reader; format: functional, organism-based; settings: dose 5-30 mg/kg, route po, time 6.0 day
[11] = tested on: Mus musculus; assay: Anti-inflammatory activity in DSS-induced ulcerative colitis male C57BL/6 mouse model assessed as reduction in IL- 6 expression in serum administered via gavage for 10 days by ELISA; format: functional, organism-based; settings: dose 15-60 mg/kg, time 10.0 day
[12] = Acute toxicity in ICR mouse assessed as spleen pathological change at 1500 mg/kg, po administered daily for 7 days by H and E staining based analysis; format: organism-based; settings: in vivo, 168 h, time 7 day
[13] = molecular target: T4, Cathepsin G (Mus musculus) (UniProt P28293); assay: In vivo inhibition of Cathepsin G in C57BL/6 mouse assessed as reduction in cathepsin G activity in blood administered orally once daily for 6 days by fluorescence based microplate reader; format: functional, organism-based; settings: dose 5-30 mg/kg, route po, time 6.0 day
T4 sequence (whole entry): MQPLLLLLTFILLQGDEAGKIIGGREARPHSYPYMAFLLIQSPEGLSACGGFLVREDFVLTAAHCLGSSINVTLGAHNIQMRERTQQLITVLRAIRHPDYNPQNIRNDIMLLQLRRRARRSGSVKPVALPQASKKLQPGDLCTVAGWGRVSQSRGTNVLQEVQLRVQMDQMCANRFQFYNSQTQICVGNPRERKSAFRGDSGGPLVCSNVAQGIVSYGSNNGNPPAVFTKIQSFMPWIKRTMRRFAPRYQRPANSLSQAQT

[14] = tested on: Mus musculus; assay: Anti-inflammatory activity in DSS-induced ulcerative colitis male C57BL/6 mouse model assessed as increase in IL-10 expression in colon administered via gavage for 10 days by ELISA; format: functional, organism-based; settings: dose 15-60 mg/kg, time 10.0 day
[15] = molecular target: T4, Cathepsin G (Mus musculus); assay: In vivo inhibition of Cathepsin G in C57BL/6 mouse assessed as reduction in cathepsin G activity in bone marrow administered orally once daily for 6 days by fluorescence based microplate reader; format: functional, organism-based; settings: dose 5-30 mg/kg, route po, time 6.0 day
[16] = tested on: RAW264.7; assay: Anti-inflammatory activity in LPS-stimulated mouse RAW264.7 cells assessed as reduction in IL-1 beta production incubated for 24 hrs by ELISA; format: functional, cell-based; settings: dose 0.62-5 µM
[17] = tested on: Mus musculus; assay: Anti-inflammatory activity in DSS-induced ulcerative colitis male C57BL/6 mouse model assessed as reduction in Cathepsin G level in serum at 60 mg/kg administered via gavage for 10 days relative to control; format: functional; design: scale not given: the % may be the effect or the level left; settings: time 10 day

Question: Which results are given for `O=C1Nc2c(cccc2-c2ccc(NC3CCOCC3)cc2)/C1=C/c1ccnc2ccccc12`?
Answer: inhibition [1]: Dose-dependent-effect; inhibition [2]: Dose-dependent-effect; Activity [3]: 8.71%; Activity [4]: Non-toxic; Activity [5]: Non-toxic; Activity [6]: 75%; AUC [7]: 915.64 ng·h/mL; inhibition [8]: Dose-dependent-effect; Papp at 1.5 h [9]: 3.2 ×10⁻⁶ cm/s; inhibition [10]: Dose-dependent-effect; Activity [11]: Dose-dependent-effect; Significant Reduction Observed In High Dose Group; Activity [12]: Non-toxic; inhibition [13]: Dose-dependent-effect; Activity [14]: Dose-dependent-effect; Significant Increase Observed In High Dose Group; inhibition [15]: Dose-dependent-effect; Activity [16]: Dose-dependent-effect; Activity [17]: 40%
